Paper PMC2099433, “The binding site for neohesperidin dihydrochalcone at the human sweet taste receptor” (BMC Structural Biology, 2007)
Substitutions are numbered along the chain they refer to. Where a SMILES comes first, the peptide text is derived from it.

Legend:
[1] = target: T1, hTAS1R2 + hTAS1R3 S620A^2.57 (Homo sapiens, UniProt Q7RTX0+Q8TE23, S620A); assay: Calcium response (FLIPR), hTAS1R3 mutant coexpressed with hTAS1R2; format: cell-based; details: variant S620A^2.57; for Emax: read-out: maximal signal (% of wt)
T1 construct: expressed in transfected cells; host or cells: HEK293T cells stably expressing G16Gust44
T1 sequence (Q8TE23 20-839): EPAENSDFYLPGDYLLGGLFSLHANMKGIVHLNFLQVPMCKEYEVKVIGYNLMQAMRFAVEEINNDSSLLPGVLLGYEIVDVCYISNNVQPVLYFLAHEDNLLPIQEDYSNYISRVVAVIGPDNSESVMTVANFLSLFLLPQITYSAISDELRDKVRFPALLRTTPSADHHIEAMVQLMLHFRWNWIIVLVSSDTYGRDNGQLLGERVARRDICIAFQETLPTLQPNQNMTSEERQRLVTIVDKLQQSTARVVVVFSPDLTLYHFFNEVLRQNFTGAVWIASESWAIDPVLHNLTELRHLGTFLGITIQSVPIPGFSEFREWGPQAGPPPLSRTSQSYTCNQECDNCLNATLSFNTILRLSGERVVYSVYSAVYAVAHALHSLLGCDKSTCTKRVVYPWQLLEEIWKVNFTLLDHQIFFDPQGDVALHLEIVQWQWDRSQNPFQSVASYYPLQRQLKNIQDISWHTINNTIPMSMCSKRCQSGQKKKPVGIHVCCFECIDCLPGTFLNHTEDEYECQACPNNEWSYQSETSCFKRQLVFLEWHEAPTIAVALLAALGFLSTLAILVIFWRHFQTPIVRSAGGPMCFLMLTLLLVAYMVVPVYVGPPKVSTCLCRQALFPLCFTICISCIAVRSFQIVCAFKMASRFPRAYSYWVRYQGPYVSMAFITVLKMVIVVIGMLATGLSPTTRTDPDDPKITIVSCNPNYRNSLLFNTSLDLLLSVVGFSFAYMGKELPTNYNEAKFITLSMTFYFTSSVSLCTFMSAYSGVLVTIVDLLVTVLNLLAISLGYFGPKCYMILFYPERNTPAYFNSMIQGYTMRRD
T1 sequence (Q7RTX0 21-852 S620A): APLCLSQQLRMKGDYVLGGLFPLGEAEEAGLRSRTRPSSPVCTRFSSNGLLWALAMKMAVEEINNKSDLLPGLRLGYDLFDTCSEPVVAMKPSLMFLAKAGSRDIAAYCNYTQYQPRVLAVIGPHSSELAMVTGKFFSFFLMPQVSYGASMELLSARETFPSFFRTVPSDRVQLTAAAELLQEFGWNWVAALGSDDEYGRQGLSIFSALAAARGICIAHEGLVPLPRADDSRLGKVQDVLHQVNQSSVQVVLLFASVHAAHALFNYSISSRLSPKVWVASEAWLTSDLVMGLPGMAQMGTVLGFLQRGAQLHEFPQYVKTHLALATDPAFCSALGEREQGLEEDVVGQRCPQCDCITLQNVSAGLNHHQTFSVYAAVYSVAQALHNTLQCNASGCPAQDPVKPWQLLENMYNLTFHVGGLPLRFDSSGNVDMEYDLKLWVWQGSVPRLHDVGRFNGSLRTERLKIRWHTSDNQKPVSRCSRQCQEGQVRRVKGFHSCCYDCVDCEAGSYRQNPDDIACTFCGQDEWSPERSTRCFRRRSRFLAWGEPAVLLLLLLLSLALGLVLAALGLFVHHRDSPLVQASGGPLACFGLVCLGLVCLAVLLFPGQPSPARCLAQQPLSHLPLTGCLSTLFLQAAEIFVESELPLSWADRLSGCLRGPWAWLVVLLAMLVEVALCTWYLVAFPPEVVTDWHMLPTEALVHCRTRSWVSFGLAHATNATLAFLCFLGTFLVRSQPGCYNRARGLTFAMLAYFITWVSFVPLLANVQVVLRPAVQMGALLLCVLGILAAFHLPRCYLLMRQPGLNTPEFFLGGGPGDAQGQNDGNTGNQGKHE
How it was run: (§1)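 Calcium mobilization was measured by FLIPR in Fluo4-AM-loaded HEK293T cells coexpressing G16Gust44 with the tagged receptor pair. Signals had mock responses removed and were given as ΔF/F.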

[2] = target: T2, hTAS1R2 + hTAS1R3 T724L^5.37 (Homo sapiens, UniProt Q7RTX0+Q8TE23, T724L); assay: as above; format: cell-based; details: variant T724L^5.37; for Emax: read-out: maximal signal (% of wt)
T2 construct: expressed in transfected cells; host or cells: HEK293T cells stably expressing G16Gust44
T2 sequence (Q7RTX0 21-852 T724L): T1 sequence (Q7RTX0 21-852 S620A) with A600S, T704L
T2 sequence (Q8TE23 20-839): T1 sequence (Q8TE23 20-839)
How it was run: as §1

| EC50 [1] | Emax [1] | EC50 [2] | Emax [2] | Structure (SMILES) |
| --- | --- | --- | --- | --- |
| 1300 ± 500 µM | 55 ± 80% | 500 ± 300 µM | 58 ± 60% | COc1ccc(CCC(=O)c2c(O)cc(O[C@@H]3O[C@H](CO)[C@@H](O)[C@H](O)[C@H]3O[C@@H]3O[C@@H](C)[C@H](O)[C@@H](O)[C@H]3O)cc2O)cc1O [NHDC, neohesperidin dihydrochalcone] |
| 1200 ± 300 µM | 64 ± 4% | 1500 ± 200 µM | 69 ± 2% | COC(=O)[C@H](Cc1ccccc1)NC(=O)[C@@H](N)CC(=O)O [aspartame] (HELM PEPTIDE1{D.F.[CO[*:1]]}$$$$V2.0) |
